Measurements published in ChEMBL document CHEMBL5331119, “Basic Nitrogen (BaN) Is a Key Property of Antimalarial Chemical Space” (J Med Chem, 2023).
Values belong to the molecule of their own block, whether it stands above or below them.

Columns and labels:
[1] = test system: Plasmodium falciparum; assay: Antiplasmodial activity against Plasmodium falciparum 3D7; format: functional, organism-based
[2] = biological target: human dihydroorotate dehydrogenase (DHODH), mitochondrial (Homo sapiens, UniProt Q02127); assay: in vitro
Chain of human dihydroorotate dehydrogenase (DHODH), mitochondrial (Q02127 whole entry): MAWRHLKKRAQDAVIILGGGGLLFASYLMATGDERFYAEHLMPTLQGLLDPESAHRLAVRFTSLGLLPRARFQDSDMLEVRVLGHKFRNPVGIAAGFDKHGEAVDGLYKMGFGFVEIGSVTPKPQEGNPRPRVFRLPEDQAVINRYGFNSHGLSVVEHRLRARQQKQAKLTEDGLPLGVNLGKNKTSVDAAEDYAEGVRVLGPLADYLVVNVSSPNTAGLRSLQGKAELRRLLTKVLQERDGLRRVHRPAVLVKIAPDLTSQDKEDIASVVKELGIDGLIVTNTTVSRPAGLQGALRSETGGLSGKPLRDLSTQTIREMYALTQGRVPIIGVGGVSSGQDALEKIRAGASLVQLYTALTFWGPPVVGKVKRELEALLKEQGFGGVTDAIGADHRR
Description: Inhibition of human DHODH

[3] = test system: Plasmodium falciparum; assay: Antiplasmodial activity against Plasmodium falciparum NF54 incubated for 48 hrs by lactate dehydrogenase assay; format: functional, organism-based; conditions: NF54, 48 h
[4] = test system: Plasmodium falciparum; assay: Antimalarial activity against Plasmodium falciparum FcB1; format: functional, organism-based
[5] = test system: Plasmodium falciparum; assay: Antiplasmodial activity against Plasmodium falciparum NF54 assessed as inhibition of parasite growth by microdilution analysis; format: functional, organism-based
[6] = test system: Plasmodium falciparum; assay: Antiplasmodial activity against Plasmodium falciparum K1 assessed as inhibition of parasite growth by microdilution analysis; format: functional, organism-based

EC50 [1]: 0.009 µM | IC50 [2]: > 100 µM
Structure (SMILES): CCOC(=O)c1[nH]c(C)c(Cc2ccc(C(F)(F)F)nc2)c1C

IC50 [2]: > 100 µM
Structure (SMILES): Cc1c(Cc2cnc(C(F)(F)F)nc2)c[nH]c1C(=O)NC1CC1

IC50 [2]: > 100 µM
Structure (SMILES): Cc1[nH]c(C(=O)NC2CC2)c(C)c1Cc1ccc(C(F)(F)F)nc1

EC50 [1]: 0.23 µM | IC50 [2]: > 100 µM
Structure (SMILES): CCOC(=O)c1[nH]c(C)c(Cc2ccc(OCC)cc2)c1C

EC50 [1]: 0.061 µM | IC50 [2]: > 100 µM
Structure (SMILES): CCOC(=O)c1[nH]c(C)c(Cc2ccc(C(F)(F)F)cc2)c1C

IC50 [3]: > 1 µM
Structure (SMILES): O=C1CN(c2nc3cc(Cl)ccc3n2Cc2ccccc2)CCN1

IC50 [3]: > 1 µM
Structure (SMILES): CC(=O)N1CCN(c2nc3cc(Cl)ccc3n2Cc2ccccc2)CC1

Continued, molecule first:

Structure (SMILES): Cc1ccc(S(=O)(=O)N2CCN(c3nc4cc(Cl)ccc4n3Cc3ccccc3)CC2)cc1
IC50 [3]: 5.26 µM

Structure (SMILES): C[C@H]1[C@H](C)CC[C@]2(C(=O)O)CC[C@]3(C)C(=CC[C@@H]4[C@@]5(C)CC[C@H](O)C(C)(C)[C@@H]5CC[C@]43C)[C@H]12 [URSOLIC ACID]
IC50 [4]: 52.9 µM

Structure (SMILES): CCN(CC)CCCC(C)Cc1ccnc2cc(Cl)ccc12 (stereo not drawn)
IC50 [5]: 3 µM | IC50 [6]: 3 µM

Structure (SMILES): C[C@H]1[C@H](C)CC[C@]2(C(=O)NCCCN3CCN(CCCNCc4ccc(O)cc4)CC3)CC[C@]3(C)C(=CC[C@@H]4[C@@]5(C)CC[C@H](O)C(C)(C)[C@@H]5CC[C@]43C)[C@H]12 (single isomer, unassigned)
IC50 [4]: 0.08 µM

Structure (SMILES): CC[C@H]1OC(=O)[C@H](C)[C@@H](O[C@H]2C[C@@](C)(OC)[C@@H](O)[C@H](C)O2)[C@H](C)[C@@H](O[C@@H]2O[C@H](C)C[C@H](N(C)C)[C@H]2O)[C@](C)(O)C[C@@H](C)CN(C)[C@H](C)[C@@H](O)[C@]1(C)O [AZITHROMYCIN]
IC50 [1]: 2.65 µM

Structure (SMILES): CCN(CC)CCCC(C)Nc1cccc2cc(Cl)ccc12 (stereo not drawn)
IC50 [5]: 3 µM | IC50 [6]: 3 µM
